For one assay, the target named is T1, cIAP1-BIR3 (Homo sapiens, UniProt Q13490).
T1 construct: cIAP1-BIR3; purchased Reaction Biology APT-11-370
In words: cIAP1-BIR3 fluorescence polarization binding assay. The following applies: FP, probe AbuRPFK-5FAM (SM5F) 5 nM, cIAP1-BIR3 15 nM, 60 min at 25° C. An excerpt:
(§1) IAPs are one main cause of cancer development and may result from overexpression of anti-apoptotic proteins. This protocol establishes three binding assays for […] Bir3 domain, cIAP1 and cIAP2 using FP (fluorescence polariation) technology. The fluorescence probe used is a synthetic peptide conjugated to 5-carboxyfluorescein (AbuRPFK-5FAM). The fluorescence polarization value (mP) was detected by Envision, which was used to reflect the binding degree of protein and fluorescent marker.
(§2) • a. Prepare 100 times of the final cpd concentration in appropriate tube and transfer 5 uL cpd to 45 μL 1× reaction buffer with 10% DMSO • b. The final reference cpd concentration is 10000, 3333.3, 1111.1, 370.4, 123.4, 41.2, 13.7, 4.57, 1.52, 0.51, 0.17 and 0 nM. So the 100 times of the concentration is 1000, 333.3, 111.1, 37.04, 12.34, 4.12, […], 0.15, 0.05, 0.017 and 0 μM. The final test cpds concentration is 3333.3, 1111.1, 370.4, 123.4, 41.2, 13.7, 4.57, 1.52, 0.51, 0.17, 0.057 and 0 nM. So the 100 times of the concentration is 333.3, 111.1, 37.04, 12.34, 4.12, […], 0.15, 0.05, 0.017, 0.0057 and […] • c. Add 8 μL/well each dose enzyme to 384 wen microplate (ProxiPlate-384 F Plus, 6008260) using multichannel pipette, prepared in Table 3. • d. Centrifuge at 1000 rpm • e. Add 2 μL/well cpd to 384 well microplate (ProxiPlate-384 F Plus, 6008260) using multichannel pipette, prepared in step a). • f. Centrifuge at 1000 rpm RT, 15 min. • g Start the assay by adding 10 uL/well substrate (prepared in Table 4) to the same 384 wen microplate using multichannel pipette. • h. Centrifuge at 1000 rpm. • i. Cover the assay plate and incubate for 60 min at 25° C. • j. Read on Envision 2104 for mP and plot the IC50s with mP values. • k. Data analysis: IC50s were determined based on a non-linear regression analysis of data collected.

The next assay addresses T2, XIAP-BIR3 (Homo sapiens, UniProt P98170).
T2 construct: XIAP-BIR3; purchased Reaction Biology APT-11-374
Briefly: XIAP-BIR3 fluorescence polarization binding assay. The following applies: FP, probe AbuRPFK-5FAM (SM5F) 5 nM, XIAP-BIR3 40 nM, 60 min at 25° C.
Excerpt: as §1, §2

In the next assay the target is T3, cIAP2-BIR3 (Homo sapiens, UniProt Q13489).
T3 construct: cIAP2-BIR3; purchased Reaction Biology APT-11-372
T3 sequence (Q13489 238-349 limits assumed): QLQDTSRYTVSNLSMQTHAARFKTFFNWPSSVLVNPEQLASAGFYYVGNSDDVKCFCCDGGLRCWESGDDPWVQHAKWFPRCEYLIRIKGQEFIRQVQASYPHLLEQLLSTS
In words: cIAP2-BIR3 fluorescence polarization binding assay. To be noted: FP, probe AbuRPFK-5FAM (SM5F) 5 nM, cIAP2-BIR3 80 nM, 60 min at 25° C.
Excerpt: as §1, §2

Each structure is given as a SMILES string.

T2 sequence (P98170 241-356 limits assumed): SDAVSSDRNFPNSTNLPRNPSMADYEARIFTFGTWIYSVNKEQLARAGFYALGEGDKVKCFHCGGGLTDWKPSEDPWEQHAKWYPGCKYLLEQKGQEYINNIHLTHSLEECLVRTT
T1 sequence (Q13490 253-363 limits assumed): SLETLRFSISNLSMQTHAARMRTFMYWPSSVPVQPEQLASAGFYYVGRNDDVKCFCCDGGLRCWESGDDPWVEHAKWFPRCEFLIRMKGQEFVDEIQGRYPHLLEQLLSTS

As to `CN[C@@H](C)C(=O)N[C@H](C(=O)N1CCC[C@H]1C(=O)N[C@@H]1CCCc2c(OCCc3ccc(CCOc4cccc5c4CCC[C@H]5NC(=O)[C@@H]4CCCN4C(=O)[C@@H](NC(=O)[C@H](C)NC)C4CCCCC4)cc3)cccc21)C1CCCCC1` [Compound I, (2S)-1-[(2S)-2-Cyclohexyl-2-[(2S)-2-(methylamino)propanamido]acetyl]-N-[(1R)-5-[2-[4-(2-[[(5R)-5-[(2S)-1-[(2S)-2-cyclohexyl-2-[(2S)-2-(methylamino)propanamido]acetyl]pyrrolidine-2-amido]-5,6,7,8-tetrahydronaphthalen-1-yl]oxy]ethyl)phenyl]ethoxy]-1,2,3,4-tetrahydmnaphthalen-1-yl]pyrrolidine-2-carboxamide], the values for the IC50 on cIAP1-BIR3, at XIAP-BIR3 and on cIAP2-BIR3 were 1 to 10 nM, 10 to 100 nM and 10 to 100 nM, respectively.

On to `CN[C@@H](C)C(=O)N[C@H](C(=O)N1CCC[C@H]1C(=O)N[C@@H]1CCCc2c(OCCCCCOc3cccc4c3CCC[C@H]4NC(=O)[C@@H]3CCCN3C(=O)[C@@H](NC(=O)[C@H](C)NC)C3CCOCC3)cccc21)C1CCOCC1` [Compound I-A, (S)-1-((S)-2-((S)-2-(methylamino)propanamido)-2-(tetrahydro-2H-pyran-4-yl)acetyl)-N—((R)-5-((5-(((R)-5-((S)-1-((S)-2-((S)-2-(methylamino)propanamido)-2-(tetrahydro-2H-pyran-4-yl)acetyl)pyrrolidine-2-carboxamido)-5,6,7,8-tetrahydronaphthalen-1-yl)oxy)pentyl)oxy)-1,2,3,4-tetrahydmnaphthalen-1-yl)pyrrolidine-2-carboxamide], for which the IC50 at cIAP1-BIR3 was in the range of 1 to 10 nM; on XIAP-BIR3, 10 to 100 nM; on cIAP2-BIR3 it was 1 to 10 nM.

Consider `CN[C@@H](C)C(=O)N[C@H](C(=O)N1C[C@@H](O)C[C@H]1C(=O)N[C@@H]1CCCc2c(OCCCCCOc3cccc4c3CCC[C@H]4NC(=O)[C@@H]3C[C@H](O)CN3C(=O)[C@@H](NC(=O)[C@H](C)NC)C3CCCCC3)cccc21)C1CCCCC1` [Compound I-B, (2S,4S)-1-((S)-2-cyclohexyl-2-((S)-2-(methylamino)propanamido)acetyl)-N—((R)-5-((5-(((R)-5-((2S,4S)-1-((S)-2-cyclohexyl-2-((S)-2-(methylamino)propanamido)acetyl)-4-hydroxypyrrolidine-2-carboxamido)-5,6,7,8-tetrahydronaphthalen-1-yl)oxy)pentyl)oxy)-1,2,3,4-tetrahydronaphthalen-1-yl)-4-hydroxypyrrolidine-2-carboxamide], for which the figures for the IC50 on cIAP1-BIR3, on XIAP-BIR3 and at cIAP2-BIR3 were 1 to 10 nM, 100 to 1000 nM and 10 to 100 nM, respectively.

With `CN[C@@H](C)C(=O)N[C@@H](C)C(=O)N1CCC[C@H]1C(=O)N[C@@H]1CCCc2c(OCCCCCOc3cccc4c3CCC[C@H]4NC(=O)[C@@H]3CCCN3C(=O)[C@H](C)NC(=O)[C@H](C)NC)cccc21` [Compound I-C, (2S)-1-[(2S)-2-[(2S)-2-(methylamino)propanamido]popanoyl]-N-[(1R)-5-[(5-[[(5R)-5-[(2S)-1-[(2S)-2-[(2S)-2-(methylamino)propanamido]propanoyl]pyrrolidine-2-amido]-5,6,7,8-tetrahydmnaphthalen-1-yl]oxy]pentyl)oxy]-1,2,3,4-tetrahydronaphthalen-1-yl]pyrrolidine-2-carboxamide], the IC50 was 1 to 10 nM at cIAP1-BIR3, 100 to 1000 nM at XIAP-BIR3 and 10 to 100 nM on cIAP2-BIR3.

For the compound `CC[C@H](NC(=O)[C@H](C)NC)C(=O)N1CCC[C@H]1C(=O)N[C@@H]1CCCc2c(OCCCCCOc3cccc4c3CCC[C@H]4NC(=O)[C@@H]3CCCN3C(=O)[C@H](CC)NC(=O)[C@H](C)NC)cccc21` [Compound I-D, (2S)-1-[(2S)-2-[(2S)-2-(methylamino)propanamido]butanoyl]-N-[(1R)-5-[(5-[[(5R)-5-[(2S)-1-[(2S)-2-[(2S)-2-(methylamino)propanamido]butanoyl]pyrrolidine-2-amido]-5,6,7,8-tetrahydronaphthalen-1-yl]oxy]pentyl)oxy]-1,2,3,4-tetrahydronaphthalen-1-yl]pyrrolidine-2-carboxamide], the results for the IC50 on cIAP1-BIR3, on XIAP-BIR3 and on cIAP2-BIR3 were 1 to 10 nM, 10 to 100 nM and 1 to 10 nM, respectively.

Turning to `CN[C@@H](C)C(=O)N[C@H](C(=O)N1C[C@@H](O)C[C@H]1C(=O)N[C@@H]1CCCc2c(OC/C=C/COc3cccc4c3CCC[C@H]4NC(=O)[C@@H]3C[C@H](O)CN3C(=O)[C@@H](NC(=O)[C@H](C)NC)C3CCCCC3)cccc21)C1CCCCC1` [Compound I-E, (2S,4S)-1-[(2S)-2-cyclohexyl-2-[(2S)-2-(methylamino)propanamido]acetyl]-N-[(1R)-5-[[(2E)-4-[[(5R)-5-[(2S,4S)-1-[(2S)-2-cyclohexyl-2-[(2S)-2-(methylamino)propanamido]acetyl]-4-hydroxypyrrolidine-2-amido]-5,6,7,8-tetrahydronaphthalen-1-yl]oxy]but-2-en-1-yl]oxy]-1,2,3,4-tetrahydronaphthalen-1-yl]-4-hydroxypyrrolidine-2-carboxamide], the half-maximal inhibitory concentration (IC50) on cIAP1-BIR3 is 1 to 10 nM; at XIAP-BIR3, 10 to 100 nM; on cIAP2-BIR3 it was 10 to 100 nM.

For the compound `CN[C@@H](C)C(=O)N[C@H](C(=O)N1CCC[C@H]1C(=O)N[C@@H]1CCCc2c(OCc3ccc(COc4cccc5c4CCC[C@H]5NC(=O)[C@@H]4CCCN4C(=O)[C@@H](NC(=O)[C@H](C)NC)C4CCCCC4)cc3)cccc21)C1CCCCC1` [Compound I-F, (2S)-1-[(2S)-2-cyclohexyl-2-[(2S)-2-(methylamino)propanamido]acetyl]-N-[(1R)-5-[[4-([[(5R)-5-[(2S)-1-[(2S)-2-cyclohexyl-2-[(2S)-2-(methylamino)propanamido]acetyl]pyrolidine-2-amido]-5,6,7,8-tetrahydronaphthalen-1-yl]oxy]methyl)phenyl]methoxy]-1,2,3,4-tetrahydronaphthalen-1-yl]pyrrolidine-2-carboxamide], the IC50 at cIAP1-BIR3 fell in the range of 1 to 10 nM; at XIAP-BIR3 it was 100 to 1000 nM; at cIAP2-BIR3, 100 to 1000 nM.

On cIAP1-BIR3, `CN[C@@H](C)C(=O)N[C@H](C(=O)N1CCC[C@H]1C(=O)N[C@@H]1CCCc2c1cccc2N1CCN(c2cccc3c2CCC[C@H]3NC(=O)[C@@H]2CCCN2C(=O)[C@@H](NC(=O)[C@H](C)NC)C2CCCCC2)CC1)C1CCCCC1` [Compound VIII-C, (2S,2'S)—N,N′-((1R,1′R)-piperazine-1,4-diylbis(1,2,3,4-tetrahydronaphthalene-5,1-diyl))bis(1-((S)-2-cyclohexyl-2-((S)-2-(methylamino)propanamido)acetyl)pyrrolidine-2-carboxamide)] displayed an IC50 of 1 to 10 nM.

On cIAP1-BIR3, `CN[C@@H](C)C(=O)N[C@H](C(=O)N1CCC[C@H]1C(=O)N[C@@H]1CCCc2c1cccc2N1CCN(c2cccc3c2CCC[C@H]3NC(=O)[C@@H]2CCCN2C(=O)[C@@H](NC(=O)[C@H](C)NC)C(C)(C)C)CC1)C(C)(C)C` [Compound VIII-D, (2S,2′S)—N,N′-((1R,1′R)-piperazine-1,4-diylbis(1,2,3,4-tetrahydronaphthalene-5,1-diyl))bis(1-((S)-3,3-dimethyl-2-((S)-2-(methylamino)propanamido)butanoyl)pyrolidine-2-carboxamide)] gave an IC50 of 1 to 10 nM.

In the case of `CC[C@H](NC(=O)[C@H](C)NC)C(=O)N1CCC[C@H]1C(=O)N[C@@H]1CCCc2c1cccc2N1CCN(c2cccc3c2CCC[C@H]3NC(=O)[C@@H]2CCCN2C(=O)[C@H](CC)NC(=O)[C@H](C)NC)CC1` [VIII-E, (2S,2'S)—N,N′-((1R,1′R)-piperazine-1,4-diylbis(1,2,3,4-tetrahydonaphthalene-5,1-diyl))bis(1-((S)-2-((S)-2-(methylamino)propanamido)butanoyl)pyrrolidine-2-carboxamide)], at cIAP1-BIR3, the IC50 was 1 to 10 nM.

`CN[C@@H](C)C(=O)N[C@H](C(=O)N1CCC[C@H]1C(=O)N[C@@H]1CCCc2c1cccc2N1CCN(c2cccc3c2CCC[C@H]3NC(=O)[C@@H]2CCCN2C(=O)[C@@H](NC(=O)[C@H](C)NC)C(C)C)CC1)C(C)C` [VIII-F, (2S,2'S)—N,N′-((1R,1′R)-piperazine-1,4-diylbis(1,2,3,4-tetrahydonaphthalene-5,1-diyl))bis(1-(methyl-L-alanyl-L-valyl)pyrrolidine-2-carboxamide)] returned an IC50 on cIAP1-BIR3 of 1 to 10 nM.

The values are drawn from US20220220152A1, “BIVALENT ANTAGONISTS OF INHIBITORS OF APOPTOSIS PROTEINS” (Hepagene Therapeutics (HK) Limited, priority 2019, published 2022).
